US20180010188A1, “METHOD FOR DETECTING NONSENSE-MEDIATED RNA DECAY” (The Regents of the University of California, priority 2016, published 2018)

Tested on: NMD and non-NMD isoforms of Srsf11, Ptbp2, Tra2b, Hnrnpl and Psd-95 (cellular NMD activity)
Experiment: RT-qPCR of endogenous NMD and non-NMD isoforms to monitor cellular NMD activity
Assay type: cell-based, mouse
Excerpt: In our method, we measure the individual abundance of NMD-sensitive isoforms and that of their non-NMD counterparts via quantitative real-time PCR (qPCR). The NMD isoforms are first examined for differential expression between a treatment and a control condition. An increase in a NMD isoform may be due to NMD inhibition, transcriptional activation or a change in alternative splicing favoring the NMD isoform. These three scenarios can be distinguished by examining the expression of the non-NMD counterparts. Genuine NMD regulation, transcriptional activation and alternative splicing regulation would lead to no change, upregulation and down-regulation of the NMD-insensitive isoforms, respectively (FIG. 6A).
One technical difficulty of our method is designing RT-qPCR primers specific to the cassette exon-skipping isoform, whose entire sequence is contained in the inclusion isoform. To specifically detect an inclusion isoform, we designed a primer entirely annealing to the cassette exon (exon B in FIG. 1A). For the exclusion isoform, junction primers annealing to the exon-skipping junction appear to be the only choices. This can be either a reverse primer (FIG. 1A) with its 5′ portion matching the downstream constitutive exon (exon C) and its 3′ portion matching the upstream constitutive exon (exon A) or a forward primer (not shown) with its 5′ and 3′ portions matching the upstream and downstream exons, respectively. The challenge is herein illustrated with reverse primers but also applies to forward primers. Many exon-skipping junction primers are able to amplify the inclusion isoforms (FIGS. 7A-D). The longer the 3′ portion of the junction primer annealing to the upstream constitutive exon, the easier the primer amplifies the inclusion transcripts (FIG. 7B). Some exon-skipping junction primers with 3′ portions as short as six nucleotides, as we've observed, can still anneal to and detect the inclusion isoform at 55-60° C., albeit at a lower efficiency than its detection of the exclusion isoform. On the other hand, a longer 5′ portion and a shorter 3′ portion increase the possibility of the primer annealing to the exon B-exon C junction because of the sequence similarity around 5′ splice sites (FIGS. 7C-D). We therefore had to identify NMD-associated cassette exons containing a 3′ end unlike that of its upstream exon. We then screened multiple exon-skipping junction primers for one that amplified only the exclusion isoform and not the inclusion isoform. All primer pairs were tested and confirmed for their specificity, RT-qPCR efficiency and linear dynamic ranges (FIG. 10). Finally, two stably expressed housekeeping genes, Gapdh and Sdha, were used as internal controls for normalization by geometric averaging (Vandesompele et al., 2002. Genome Biol 3: RESEARCH0034).
Because our method can be used on its own can to infer NMD regulation with a low false positive rate, one of its applications is unbiased screening for changes in cellular NMD activity. We screened a small panel of widely used pharmacological inhibitors for their effects on NMD. The expression of both the NMD and non-NMD isoforms of Ptbp2, Srsf11, Tra2b, Hnrnpl and Psd-95 were simultaneously measured before and after drug treatment. When the levels of all of the NMD isoforms were altered by a chemical in the same direction, the expression of the NMD and non-NMD isoforms under the treatment and control conditions was then subjected to ANOVA analysis to determine differential regulation of the two isoforms. We were interested in drugs that affected the NMD isoforms across the board and more strongly than the non-NMD counterparts. With this criterion, we identified thapsigargin as having potent activity in blocking cellular NMD.
Neuro-2a (N2a) cells were maintained in N2a complete media consisting of L-glutamine-free Dulbecco's modified Eagle's medium (DMEM), 10% FBS and 1× GlutaMAX at 37° C. […]

[1] = N2a cells, 5 hours post-treatment

SMILES | concentration sufficient to revert the effect of thapsigargin on the NMD isoforms (N2a cells, thapsigargin plus GSK2606414, Psd-95, Ptbp2, Tra2b) [µM] | upregulation of the NMD isoforms in thapsigargin-treated cells (dose-dependent, 1 hour preincubation) | NMD activity in DMSO-treated cells (without thapsigargin) | NMD repression at 0.01 μM (0.01 μM, 5 hours) | isoform upregulation relative to maximal upregulation (0.02 μM) | earliest time of increase of NMD isoform transcripts (0.2 μM thapsigargin, N2a cells) [h] | increase of non-NMD isoforms of Ptbp2 and Psd-95 (0.2 μM, at 5 hours) | non-NMD isoform levels of Srsf11, Tra2b and Hnrnpl (0.2 μM, at 5 hours) | fraction of full NMD inhibition detectable (1 hour post-treatment, full inhibition at 5 hours) | concentration at which repressive effect on NMD started to plateau (N2a cells) [µM] | concentration at which Xbp1s splicing and NMD repression plateaued [1] | lowest concentration at which NMD inhibition was observed [1] [µM] | lowest concentration inhibiting NMD [1] [nM] | NMD inhibition at concentrations above 0.2 μM (above 0.2 μM (data not shown)) | NMD isoforms in siPerk-pretreated cells (thapsigargin after 48 hours siPerk)
Cn1cc(-c2ccc3c(c2)CCN3C(=O)Cc2cccc(C(F)(F)F)c2)c2c(N)ncnc21 [GSK2606414] | ≥ 0.1 | effectively reversed | did not affect |  |  |  |  |  |  |  |  |  |  |  | 
C/C=C(/C)C(=O)O[C@H]1C(C)=C2[C@H]([C@@H]1OC(=O)CCCCCCC)[C@@](C)(OC(C)=O)C[C@H](OC(=O)CCC)[C@@]1(O)[C@H]2OC(=O)[C@@]1(C)O [thapsigargin] |  |  |  | little NMD repression | about 20% | 1 | around 1.8 fold | barely changed | 20-30% | ≥ 0.2 | ≥ 0.1 | 0.02 | 20 | did not further increase NMD inhibition | none of the NMD isoforms were stimulated
